In ChEMBL document CHEMBL3853314, “G-Protein-Coupled Receptor Kinase 2 (GRK2) Inhibitors: Current Trends and Future Perspectives” (J Med Chem, 2016):
Peptide text beside a SMILES is read from it.

Tests used:
[1] = molecular target: T1, Beta-adrenergic receptor kinase 1 (Bos taurus, UniProt P21146); test: Inhibition of bovine cerebral cortex GRK2 assessed as decrease in phosphorylation of beta-adrenoceptor in presence of [gamma-32P]-ATP by SDS-PAGE analysis
T1 sequence (P21146 whole entry): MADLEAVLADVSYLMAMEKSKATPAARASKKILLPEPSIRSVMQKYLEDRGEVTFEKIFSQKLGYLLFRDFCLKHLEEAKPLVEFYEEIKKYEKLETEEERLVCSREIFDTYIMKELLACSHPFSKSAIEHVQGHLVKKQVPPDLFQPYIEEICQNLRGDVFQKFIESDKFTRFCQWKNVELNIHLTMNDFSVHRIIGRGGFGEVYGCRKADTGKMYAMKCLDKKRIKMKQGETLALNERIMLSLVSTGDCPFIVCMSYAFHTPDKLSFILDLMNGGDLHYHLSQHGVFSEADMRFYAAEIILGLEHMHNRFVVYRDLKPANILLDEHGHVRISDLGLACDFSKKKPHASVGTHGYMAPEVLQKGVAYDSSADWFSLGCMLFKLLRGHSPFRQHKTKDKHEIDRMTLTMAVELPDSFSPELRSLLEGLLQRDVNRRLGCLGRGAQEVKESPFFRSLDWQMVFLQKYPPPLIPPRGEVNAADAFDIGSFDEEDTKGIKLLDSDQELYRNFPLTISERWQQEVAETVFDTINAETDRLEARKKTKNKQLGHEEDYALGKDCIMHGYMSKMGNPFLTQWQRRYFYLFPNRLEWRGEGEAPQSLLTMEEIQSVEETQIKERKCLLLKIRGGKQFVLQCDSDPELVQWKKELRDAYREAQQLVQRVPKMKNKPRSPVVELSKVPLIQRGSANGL

[2] = molecular target: T2, cGMP-dependent protein kinase 1 (Homo sapiens, UniProt Q13976); test: Binding affinity to human recombinant N-terminal GST-tagged PKGalpha expressed in Baculovirus infected insect Sf9 cells using RKRSRAE as substrate in presence of [gamma-32P]ATP
T2 sequence (Q13976 whole entry): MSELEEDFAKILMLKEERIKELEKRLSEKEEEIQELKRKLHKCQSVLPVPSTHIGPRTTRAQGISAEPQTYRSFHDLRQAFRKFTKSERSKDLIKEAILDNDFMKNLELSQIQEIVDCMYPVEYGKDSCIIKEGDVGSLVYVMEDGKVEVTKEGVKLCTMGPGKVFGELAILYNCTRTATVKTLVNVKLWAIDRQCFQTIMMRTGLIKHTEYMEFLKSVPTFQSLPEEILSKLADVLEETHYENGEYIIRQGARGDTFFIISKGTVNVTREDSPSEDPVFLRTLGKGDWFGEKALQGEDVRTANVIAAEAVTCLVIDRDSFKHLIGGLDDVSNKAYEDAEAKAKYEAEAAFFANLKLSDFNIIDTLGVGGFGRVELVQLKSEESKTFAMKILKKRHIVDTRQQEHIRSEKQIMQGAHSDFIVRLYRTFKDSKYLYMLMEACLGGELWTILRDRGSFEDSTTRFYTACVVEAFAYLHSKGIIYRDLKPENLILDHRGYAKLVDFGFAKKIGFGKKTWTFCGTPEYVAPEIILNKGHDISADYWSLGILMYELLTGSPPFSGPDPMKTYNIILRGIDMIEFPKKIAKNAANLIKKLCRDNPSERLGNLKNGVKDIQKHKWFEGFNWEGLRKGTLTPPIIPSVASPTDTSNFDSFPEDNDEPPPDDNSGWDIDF

[3] = molecular target: Protein kinase C alpha type (Homo sapiens, UniProt P17252); test: Binding affinity to PKCalpha (unknown origin) using Lys-Arg-Thr-Leu-Arg-Arg as substrate after 8 mins in presence of [gamma-32P]ATP by liquid scintillation spectrometry
Rhodopsin kinase GRK1 = molecular target: T3, Rhodopsin kinase GRK1 (Bos taurus, UniProt P28327); test: Inhibition of bovine C-terminal truncated GRK1 (535 residues) assessed as decrease in phosphorylation of urea-washed bovine rod outer segments preincubated for 30 mins followed by ATP addition and light exposure measured after 5 to 10 mins by SDS-PAGE analysis
T3 sequence (P28327 whole entry): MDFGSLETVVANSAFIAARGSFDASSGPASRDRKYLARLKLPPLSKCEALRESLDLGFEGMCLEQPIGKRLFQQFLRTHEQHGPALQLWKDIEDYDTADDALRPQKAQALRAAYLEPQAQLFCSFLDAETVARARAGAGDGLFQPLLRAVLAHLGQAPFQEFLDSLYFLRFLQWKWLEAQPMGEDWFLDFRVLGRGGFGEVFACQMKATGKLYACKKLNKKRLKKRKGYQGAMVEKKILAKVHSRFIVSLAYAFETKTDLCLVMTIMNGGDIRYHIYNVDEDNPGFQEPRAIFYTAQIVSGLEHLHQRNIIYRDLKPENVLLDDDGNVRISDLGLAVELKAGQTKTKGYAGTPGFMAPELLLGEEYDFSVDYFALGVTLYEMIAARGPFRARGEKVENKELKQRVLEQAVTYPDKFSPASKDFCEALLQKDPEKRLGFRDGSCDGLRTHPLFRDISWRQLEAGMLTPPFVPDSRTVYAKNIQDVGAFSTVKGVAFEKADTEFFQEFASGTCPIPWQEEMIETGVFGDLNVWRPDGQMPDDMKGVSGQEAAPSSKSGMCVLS

[4] = molecular target: Protein kinase C beta type (Homo sapiens, UniProt P05771); test: Binding affinity to PKCbeta2 (unknown origin) using Lys-Arg-Thr-Leu-Arg-Arg as substrate after 8 mins in presence of [gamma-32P]ATP by liquid scintillation spectrometry
Chain of Protein kinase C beta type (P05771 whole entry): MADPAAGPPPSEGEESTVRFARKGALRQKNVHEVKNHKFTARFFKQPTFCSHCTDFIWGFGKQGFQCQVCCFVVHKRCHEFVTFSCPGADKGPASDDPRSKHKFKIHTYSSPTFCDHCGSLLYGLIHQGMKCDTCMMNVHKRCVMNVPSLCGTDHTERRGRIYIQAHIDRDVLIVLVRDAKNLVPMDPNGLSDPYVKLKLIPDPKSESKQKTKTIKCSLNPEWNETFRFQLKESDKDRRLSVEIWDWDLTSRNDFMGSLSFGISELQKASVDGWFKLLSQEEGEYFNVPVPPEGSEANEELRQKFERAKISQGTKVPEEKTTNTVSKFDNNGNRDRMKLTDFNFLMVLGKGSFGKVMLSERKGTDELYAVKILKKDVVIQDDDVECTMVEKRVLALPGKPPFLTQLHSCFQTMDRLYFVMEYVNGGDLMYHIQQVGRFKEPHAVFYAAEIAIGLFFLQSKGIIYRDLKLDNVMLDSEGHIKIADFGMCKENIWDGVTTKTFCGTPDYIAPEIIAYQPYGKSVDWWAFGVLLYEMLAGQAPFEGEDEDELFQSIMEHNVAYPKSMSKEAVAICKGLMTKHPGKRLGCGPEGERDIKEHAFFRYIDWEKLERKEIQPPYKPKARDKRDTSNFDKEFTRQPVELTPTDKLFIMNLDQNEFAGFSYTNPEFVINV

| Compound | IC50 [1] [µM] | Kd [2] [µM] | Kd [3] [µM] | IC50 (Rhodopsin kinase GRK1) [µM] | Kd [4] [µM] |
| --- | --- | --- | --- | --- | --- |
| CC(C)C[C@H](NC(=O)[C@H](CCCNC(=N)N)NC(=O)[C@H](CCC(=O)O)NC(=O)[C@H](Cc1ccccc1)NC(=O)[C@H](CCCCN)NC(=O)[C@H](C)N)C(=O)N[C@@H](CCC(N)=O)C(=O)N[C@H](C(=O)N[C@H](C(=O)N[C@H](C(=O)N[C@@H](CC(N)=O)C(=O)O)[C@@H](C)O)C(C)C)[C@@H](C)O (H-AKFERLQTVTN-OH) | 1600 |  |  |  |  |
| O=C(N[C@@H]1CNCCC[C@H]1OC(=O)c1cc(O)c(C(=O)c2c(O)cccc2C(=O)O)c(O)c1)c1ccc(O)cc1 [BALANOL] |  | 0.0016 | 0.0064 | 4.1 | 0.0018 |
